According to article PMC4213378, “Pharmacokinetics and Efficacy of the Spleen Tyrosine Kinase Inhibitor R406 after Ocular Delivery for Retinoblastoma” (Pharmaceutical Research, 2014):

Legend:
[1] = Concentration and stability of R406 in castor oil and castor oil emulsion; format: physicochemical
Procedure: For oral delivery of R788, the target dose of 25 mg/kg R788 was administered by oral gavage as a 4 mM solution in 0.01 N citrate buffer, pH 6 ([9]). For subconjunctival administration, R788 was prepared at a concentration of 4 mM in 2% PEG-800 and filtered through a 0.22 μm filter prior to use (see Table S1). R788 was also administered subconjunctivally as a suspension at a concentration of 25 mM in 10% 2-hydroxylpropyl-β-cyclodextrin (HPβCD, Sigma-Aldrich). For subconjunctival administration, R406 phenylsulfonate salt was administered at a concentration of 800–900 μM as a cosolvent solution in a formulation of 5% Cremaphor-eL, 0.5% ethanol, 0.2% Tween 80 and 94.3% PBS, filtered through a 0.22 μm filter prior to use (see Table S2). R406 phenylsulfonate salt was also administered subconjunctivally at a dose of 31.4 mM solution in DMSO. R406 free base was administered subconjunctivally at a concentration of 6.5 mM as a 25% castor oil (Sigma-Aldrich) emulsion. This emulsion was prepared by mixing castor oil: ethanol (1:1) solution of R406 (approx. 35 mM), in vacuo evaporation of the ethanol, and centrifugation to remove any excess R406, then emulsifying the R406 oil phase in an aqueous phase comprised of Cremaphor-eL, Tween 80 and PBS (final composition of the emulsion: 25% castor oil, 5% Cremaphor-eL, 0.2% Tween-80, 69.8% PBS) by probe sonication. For intravitreal injection, R788 solution was prepared by filtering a 0.12 mM (120 μM) solution of R788 in saline through a 0.22 μm filter. […] For topical delivery, 25–30 mM suspensions were prepared in 5% HPβCD. R406 or R788 concentration in all formulations was determined by UPLC prior to study (in cases where formulation was filtered before administration, concentration was determined post-filtering) Table I.
An emulsion of 30% castor oil, 5% Cremaphor, 4% T80, 61% PBS was prepared and samples were stored at 4 °C and room temperature (25 °C). Samples were diluted and OD600 for each dilution was measured in triplicate on the day of emulsion preparation (storage time = 0 days) and after 6 days of storage. OD600 was measured using a black Costar clear bottom plate and a Spectramax plate reader.
For storage stability in emulsion, n =4.

[2] = Storage stability of R406 in murine plasma samples; format: physicochemical, mouse; conditions: murine plasma at -20°C, thawed on Day 3, injected at Day 3
[3] = test system: SJ-39 retinoblastoma cells; test: Efficacy in human orthotopic xenograft mouse model of retinoblastoma (event-free survival); format: in vivo
Procedure: Preclinical testing was carried out in human orthotopic xenograft mice using the methods previously described ([10], [11]). SJ-39 retinoblastoma cells were injected into the vitreous of 30 immunocompromised mice (J:NU, The Jackson Laboratory (Bar Harbor, ME, USA)): 10 were untreated and 20 received subconjunctival injections of R406 in solution formulation (R406^oc) and systemic topotecan (TPT^syst) combination therapy administered over a 5-day course every third week as follows: 10 μL R406 per eye at a concentration of […] (8–9 nanomoles/eye) on day 1, and TPT^syst (0.7 mg/kg per dose, i.p.) on days 1 to 5 (see Fig. 1a). Mice were scheduled to receive six courses of therapy (18 weeks total). Before each course of therapy, mice were examined and intraocular pressure (IOP) was read as previously described ([10], [11]). If intraocular pressure was elevated above normal (IOP > 20) or eye rupture was observed, mice were taken off study and time to event was recorded. At the completion of the study event-free survival (EFS) was analyzed for the R406^oc/TPT^syst treated and untreated groups.
Since R406 is the SYK inhibitor farthest along in clinical development (Phase 3), and therefore the most likely compound to be tested clinically against retinoblastoma, we decided to focus upon its evaluation. In order to test the efficacy of R406 in vivo, we developed a solution formulation using FDA approved adjuvants for ophthalmic applications ([11]). The maximum concentration of R406 in solution was approximately 900 μM and R406 was chemically stable in formulation for 48 h at room temperature (Table S3 and Fig. S2). Next, we performed in vivo efficacy studies using the solution formulation of R406 in combination with systemic topotecan (standard for our preclinical evaluation of new retinoblastoma agents ([11]) following a clinically relevant dose and schedule as was previously done for nutlin-3a and BAY-61-3606 ([6], [11]). SJ-39 retinoblastoma cells were injected into the vitreous of 30 immunocompromised mice and animals were randomized into two treatment groups: 20 received subconjunctival injections of R406 in solution formulation (R406^oc) and systemic topotecan (TPT^syst) combination therapy administered over a 5-day course every third week (see Fig. 1a) and 10 were untreated. Animals were scheduled to receive 6 courses of treatment (18 weeks total), but no animal completed the entire 6 courses. All animals were taken off study by 63 days due to elevated intraocular pressure (IOP > 20) or eye rupture. Event free survival (EFS) was analyzed for the two groups (Fig. 1b). […]

[4] = Storage Time = 24 hr, room temperature
[5] = Storage Time = 48 hr, room temperature
[6] = Storage Time = 72 hr, room temperature

SMILES: COc1cc(Nc2ncc(F)c(Nc3ccc4c(n3)NC(=O)C(C)(C)O4)n2)cc(OC)c1OC [R406]
- Average Concentration in castor oil emulsion ([1]; Initial Concentration, room temperature, n=4): 12.39 ± 1.21 mM
- time emulsion was stable ([1]; R406 castor oil emulsion, room temperature): 48 h
- Average Concentration in castor oil emulsion [1, 4]: 11.03 ± 2.09 mM
- Percentage of Initial Concentration in castor oil emulsion [1, 4]: 89.0%
- Average Concentration in castor oil emulsion [1, 5]: 9.78 ± 3.13 mM
- Percentage of Initial Concentration in castor oil emulsion [1, 5]: 78.9%
- Average Concentration in castor oil emulsion [1, 6]: 12.45 ± 1.43 mM
- Percentage of Initial Concentration in castor oil emulsion [1, 6]: 100.5%
- concentration of R406 achieved in emulsion ([1]; castor oil emulsion): 6500 µM
- time stable in castor oil emulsion ([1]; room temperature): at least 72 hours
- Accuracy% ([2]; High Control 3333.3 nM): 90.3%
- Accuracy% ([2]; Low Control 41.2 nM): 96.1%
- proportion of event free survivals at 21 days ([3]; subconjunctival R406 solution 8–9 nmol/eye day 1 + systemic topotecan 0.7 mg/kg i.p. days 1-5, every third week, n=20, untreated 50%): 90%
- time by which all animals were taken off study (IOP > 20 or eye rupture) ([3]; subconjunctival R406 solution + systemic topotecan): ≤ 63 days
- proportion of event free survivals at 42 days ([3]; subconjunctival R406 solution + systemic topotecan, untreated 0%): 30%
- Median event free survival ([3]; subconjunctival R406 solution + systemic topotecan, untreated 32.5 days, log-rank p = 0.005): 42 days
